Residues, ends and D or L forms follow the SMILES beside them.

The values below come from US12357556B2, “Composition for improving hair health” (K18, Inc., priority 2018, dated 2025).

The target of the test is T1, natural hair keratin (Hair Keratin KRTHB1 Basic, SEQ ID NO: 7) (Homo sapiens, UniProt Q14533).
T1 sequence (Q14533 304-505): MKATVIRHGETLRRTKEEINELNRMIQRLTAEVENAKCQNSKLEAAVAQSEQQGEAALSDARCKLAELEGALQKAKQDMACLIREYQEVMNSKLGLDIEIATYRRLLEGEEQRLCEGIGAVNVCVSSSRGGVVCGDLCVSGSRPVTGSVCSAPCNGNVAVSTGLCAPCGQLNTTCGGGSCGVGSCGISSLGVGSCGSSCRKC
Nature of the test: SPRi binding affinity of peptides to keratin printed on a sensor chip. The note with it: for kon / koff: SPRi, 4° C., kinetic analysis with BIAevaluation 4.1; for kon: read-out: Ka (association rate constant); for koff: read-out: Kd (dissociation rate constant); for Affinity ranking: rank by KD, the lower the KD the more affinity to hair keratin. As to the method:
Affinity of Aquis peptides with natural hair keratin were tested. A third peptide was also tested with the sequence GGVCGPSPPCITT (SEQ ID NO: 6) known as KP developed by Khairpep as a control. KP has been shown in previous patent and publications to penetrate the hair shaft, bind to keratin and improve hair mechanical properties. Various concentrations of Keratin dissolved in water were manually printed onto the bare gold coated (thickness 47 nm) PlexArray Nanocapture Sensor Chip (Plexera Bioscience, Seattle, WA, US) at 40% humidity. Each concentration was printed in replicate, and each spot contained 0.2 microliters of […] solution. The chip was incubated in 80% humidity at 4° C. for overnight, and rinsed with 10×PBST for 10 min, 1×PBST for 10 min, and deionized water twice for 10 min. The chip was then blocked with 5% (w/v) non-fat milk in water overnight, and washed with 10×PBST for 10 min, 1×PBST for 10 min, and deionized water twice for 10 min before being dried under a stream of nitrogen prior to use. SPRi measurements were performed with PlexAray HT (Plexera Bioscience, Seattle, WA, US). Collimated light (660 nm) passes through the coupling prism, reflects off the SPR-active gold surface, and is received by the CCD camera. Buffers and samples were injected by a non-pulsatile piston pump into the 30 uL flowcell that was mounted on the coupling prim. Each measurement cycle contained four steps: washing with PBST running buffer at a constant rate of 2 uL/s to obtain a stable baseline, sample injection at 5 uL/s for binding, surface washing with PBST at 2 uL/s for 300 s, and regeneration with 0.5% (v/v) H3PO4 at 2 uL/s for 300 s. All the measurements were performed at 4° C. The signal changes after binding and washing (in AU) are recorded as the assay value. Selected protein-grafted regions in the SPR images were analyzed, and the average reflectivity variations of the chosen areas were plotted as a function of time. Real-time binding signals were recorded and analyzed by Data Analysis Module (DAM, Plexera Bioscience, Seattle, WA, US). Kinetic analysis was performed using BIAevaluation 4.1 software (Biacore, Inc.).
FIG. 1 to 3 show the binding affinity to keratin for each peptide tested. The lower the KD value is, the more affinity the peptide has to hair keratin.

Regarding `CC(C)C[C@H](NC(=O)[C@H](CCC(N)=O)NC(=O)[C@H](CS)NC(=O)[C@H](CS)NC(=O)[C@H](CO)NC(=O)[C@@H]1CCCN1C(=O)[C@@H]1CCCN1C(=O)[C@@H](NC(=O)[C@@H](N)CS)[C@@H](C)O)C(=O)N[C@@H](Cc1c[nH]cn1)C(=O)N[C@@H](Cc1c[nH]cn1)C(=O)N[C@@H](C)C(=O)O` [Aquis 2, CTPPSCCQLHHA] (H-CTPPSCCQLHHA-OH; N-terminus and C-terminus assumed), the kon was determined as 8240 M⁻¹ s⁻¹, the koff worked out at 0.0206 s⁻¹ and the Affinity ranking came to 3.

Turning to `C[C@@H](O)[C@H](NC(=O)[C@H](CO)NC(=O)[C@H](CS)NC(=O)[C@H](CO)NC(=O)[C@@H]1CCCN1C(=O)[C@H](Cc1ccccc1)NC(=O)CNC(=O)[C@H](CS)NC(=O)[C@@H](N)Cc1ccccc1)C(=O)N[C@@H](CO)C(=O)NCC(=O)O` [Aquis 1, FCGFPSCSTSG] (H-FCGFPSCSTSG-OH; N-terminus and C-terminus assumed), the kon came to 1310 M⁻¹ s⁻¹, the koff came to 0.000478 s⁻¹ and the Affinity ranking was found to be 1. Besides, the “affinity to hair keratin compared with the other peptides” value (comparison of Figures 1-3, in words) is recorded as “has the most affinity to hair keratin”.

Turning to `CC[C@H](C)[C@H](NC(=O)[C@H](CS)NC(=O)[C@@H]1CCCN1C(=O)[C@@H]1CCCN1C(=O)[C@H](CO)NC(=O)[C@@H]1CCCN1C(=O)CNC(=O)[C@H](CS)NC(=O)[C@@H](NC(=O)CNC(=O)CN)C(C)C)C(=O)N[C@H](C(=O)N[C@H](C(=O)O)[C@@H](C)O)[C@@H](C)O` [KP, GGVCGPSPPCITT, reference compound] (H-GGVCGPSPPCITT-OH; N-terminus and C-terminus assumed), the kon turned out to be 8500 M⁻¹ s⁻¹, the koff is 0.000692 s⁻¹ and the Affinity ranking is on record as 2.
